According to the supplement of paper PMC10307832:

How the values were obtained:
Assay in all cases: relative viability (nuclei count vs DMSO), 5 days (fraction); higher = more cells survive
[1] = compound: COc1cc2c(Oc3ccc4[nH]c(C)cc4c3F)ncnc2cc1OCCCN1CCCC1 [Cediranib] + C[C@@H](Oc1cc(-c2cnn(C3CCNCC3)c2)cnc1N)c1c(Cl)ccc(F)c1Cl [Crizotinib] (partner 1 µM)
Procedure, shortened: (§1)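 Relative viability equals treated-well nuclei counts divided by vehicle-well nuclei counts. Counts came from 4× images of lung cancer cell lines grown in 1536-well plates for 5 days after pin-tool dosing on the day after seeding. Dosing used one drug alone or a fixed anchor-drug dose plus five library-drug doses (not always all listed) in √10 steps, and values are medians of duplicate plates.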

[2] = compound: COc1cc2c(Oc3ccc4[nH]c(C)cc4c3F)ncnc2cc1OCCCN1CCCC1 [Cediranib] + CC1(C)CCC(c2ccc(Cl)cc2)=C(CN2CCN(c3ccc(C(=O)NS(=O)(=O)c4ccc(N[C@H](CCN5CCOCC5)CSc5ccccc5)c(S(=O)(=O)C(F)(F)F)c4)cc3)CC2)C1 [Navitoclax] (partner 0.5 µM)
Procedure, shortened: as §1

[3] = compound: Nc1ncn([C@H]2C[C@H](O)[C@@H](CO)O2)c(=O)n1 [Decitabine] + CC(=O)Nc1cccc(-n2c(=O)n(C3CC3)c(=O)c3c(Nc4ccc(I)cc4F)n(C)c(=O)c(C)c32)c1 [Trametinib] (partner 0.02 µM)
Procedure, shortened: as §1

[4] = compound: COc1cc2c(Oc3ccc4[nH]c(C)cc4c3F)ncnc2cc1OCCCN1CCCC1 [Cediranib] + COc1cc2c(Oc3ccc(NC(=O)C4(C(=O)Nc5ccc(F)cc5)CC4)cc3F)ccnc2cc1OCCCN1CCOCC1 [Foretinib] (partner 0.25 µM)
Procedure, shortened: as §1

Row | Cell Line | relative viability ([1]; first compound 0.04 µM) | relative viability ([1]; first compound 0.1265 µM) | relative viability ([1]; first compound 0.4 µM) | relative viability ([1]; first compound 1.265 µM) | relative viability ([1]; first compound 4 µM) | relative viability ([2]; first compound 0.04 µM) | relative viability ([2]; first compound 0.1265 µM) | relative viability ([2]; first compound 0.4 µM) | relative viability ([2]; first compound 1.265 µM) | relative viability ([2]; first compound 4 µM) | relative viability ([3]; first compound 0.04 µM) | relative viability ([3]; first compound 0.1265 µM) | relative viability ([3]; first compound 0.4 µM) | relative viability ([3]; first compound 1.265 µM) | relative viability ([3]; first compound 4 µM) | relative viability ([4]; first compound 0.04 µM) | relative viability ([4]; first compound 0.1265 µM) | relative viability ([4]; first compound 0.4 µM) | relative viability ([4]; first compound 1.265 µM) | relative viability ([4]; first compound 4 µM)
1 | HCC-366 | 0.629 | 0.574 | 0.423 | 0.466 | 0.788 | 1.07 | 0.983 | 1.11 | 1.07 | 1.07 | 0.361 | 0.334 | 0.258 | 0.12 | 0.109 | 0.935 | 0.902 | 0.772 | 0.94 | 1.01
2 | HCC-827 | 0.931 | – | 0.869 | 0.951 | 0.976 | 1.02 | – | 1.02 | 1.04 | 1.1 | 0.222 | 0.378 | 0.322 | 0.257 | 0.344 | 1.2 | – | 0.986 | 1.05 | 1.03
3 | HOP-62 | 0.802 | – | 0.886 | 0.858 | 1.1 | 1.08 | 0.892 | 0.867 | 1.1 | 1.14 | 0.358 | 0.338 | 0.262 | 0.202 | 0.187 | 1.3 | 1.15 | 1.1 | 1.15 | 1.22
4 | IA-LM | 0.775 | 1.28 | 0.718 | 0.828 | 0.992 | 0.875 | 0.921 | 0.652 | 0.672 | 1.09 | – | – | – | – | – | 1.16 | 1.32 | 1.07 | 1.26 | 1.33
5 | LC-2-ad | 0.462 | 0.425 | 0.366 | 0.474 | 0.419 | 0.504 | 0.502 | 0.469 | 0.419 | 0.513 | 0.778 | 0.837 | 0.763 | 0.651 | 0.573 | 1.12 | 0.581 | 0.883 | 1.04 | 0.891
6 | LCLC-97TM1 | 0.272 | – | 0.352 | 0.47 | 0.363 | 0.316 | – | 0.448 | 0.544 | 0.527 | 0.219 | 0.213 | 0.183 | 0.144 | 0.155 | 0.969 | 0.919 | 0.946 | 0.921 | 0.967
7 | LCLC-103H | 0.995 | 1.09 | 1.02 | 1.07 | 1.07 | – | – | – | – | – | 0.659 | 0.714 | 0.771 | 0.623 | 0.688 | 0.819 | 0.964 | 0.686 | 0.823 | 0.832
8 | LK-2 | 0.19 | 0.222 | 0.247 | 0.25 | 0.257 | 1 | 0.848 | 0.768 | 0.828 | 0.861 | 0.692 | 0.674 | 0.605 | 0.435 | 0.371 | 1.43 | 0.875 | 1.23 | 1.19 | 1.01
9 | NCI-H358 | 0.546 | 0.641 | 0.637 | 0.567 | 0.428 | – | – | – | – | – | 0.132 | 0.124 | 0.137 | 0.121 | 0.126 | 0.712 | 0.809 | 0.677 | 0.616 | 0.763
10 | NCI-H522 | – | – | – | – | – | – | – | – | – | – | 0.718 | 0.714 | 0.547 | 0.537 | 0.513 | – | – | – | – | –
11 | NCI-H650 | 0.7 | 0.757 | 0.612 | 0.835 | 0.639 | – | – | – | – | – | 0.717 | 0.561 | 0.418 | 0.319 | 0.259 | 1.03 | 0.944 | 1 | 1.09 | 1.02
12 | NCI-H661 | 0.964 | 0.922 | 0.935 | 1.02 | 1.04 | – | – | – | – | – | 0.502 | 0.577 | 0.508 | 0.392 | 0.404 | 1.04 | 0.971 | 0.956 | 0.978 | 1.11
13 | NCI-H1299 | 0.982 | 0.945 | 0.957 | 0.92 | 0.929 | 1.07 | 1.02 | 1.03 | 1.07 | 1.08 | – | – | – | – | – | 1.1 | 1.05 | 1.13 | 1.1 | 1.15
14 | NCI-H1395 | – | – | – | – | – | 1.23 | – | 1.23 | 1.13 | 1.05 | 0.793 | 0.906 | 0.828 | 0.655 | 0.607 | 1.1 | 1.01 | 0.911 | 0.976 | 1.13
15 | NCI-H1563 | 0.919 | 0.866 | 0.854 | 0.833 | 0.894 | – | – | – | – | – | – | – | – | – | – | 0.976 | 1.09 | 0.908 | 0.958 | 0.936
16 | NCI-H1623 | – | – | – | – | – | – | – | – | – | – | – | – | – | – | – | 0.974 | 0.59 | 0.793 | 0.861 | 0.805
17 | NCI-H1648 | – | – | – | – | – | – | – | – | – | – | 0.442 | 0.462 | 0.452 | 0.379 | 0.355 | – | – | – | – | –
18 | NCI-H1703 | 0.721 | 0.707 | 0.188 | 0.214 | 0.191 | 1.11 | 0.916 | 0.287 | 0.237 | 0.238 | – | – | – | – | – | 0.468 | 0.37 | 0.247 | 0.33 | 0.337
19 | NCI-H1792 | 1.03 | 1.03 | 0.915 | 0.979 | 0.882 | 0.446 | 0.442 | 0.588 | 0.668 | 0.393 | 0.432 | 0.359 | 0.477 | 0.257 | 0.193 | – | – | – | – | –
20 | NCI-H1793 | – | – | – | – | – | 0.59 | 0.468 | 0.461 | – | 0.46 | 0.399 | 0.407 | 0.463 | 0.339 | 0.35 | 0.758 | 0.931 | 0.698 | – | 0.672
21 | NCI-H2342 | – | – | – | – | – | – | – | – | – | – | 0.959 | 1.03 | 0.88 | 0.606 | 0.72 | 1.14 | 1.07 | 0.927 | 1.06 | 1.12
22 | SW 900 | – | – | – | – | – | – | – | – | – | – | 0.389 | 0.435 | 0.288 | 0.262 | 0.288 | 0.535 | 0.877 | 0.878 | 0.98 | 1.18
